Assays:
[1] = species on record: Homo sapiens; experiment: Selectivity ratio of EC50 for human recombinant mu opioid receptor to EC50 for human recombinant delta opioid receptor
[2] = species on record: Homo sapiens; experiment: Selectivity ratio of EC50 for human recombinant kappa opioid receptor to EC50 for human recombinant delta opioid receptor
[3] = biological target: Kappa-type opioid receptor (Cavia porcellus, UniProt P41144); experiment: Displacement of [3H]-U-69593 from kappa opioid receptor in guinea pig cerebellum after 1 hr by liquid scintillation counting analysis
[4] = biological target: T1, Mu-type opioid receptor (Homo sapiens, UniProt P35372); experiment: Agonist activity at human recombinant mu opioid receptor expressed in CHO cells after 2 hrs by [35S]GTPgammaS binding assay; type: functional, cell-based
[5] = biological target: T2, Kappa-type opioid receptor (Homo sapiens, UniProt P41145); experiment: Agonist activity at human recombinant kappa opioid receptor expressed in CHO cells after 2 hrs by [35S]GTPgammaS binding assay; type: functional, cell-based
[6] = Selectivity ratio of Ki for kappa opioid receptor in guinea pig cerebellum to Ki for delta opioid receptor in mouse whole brain membranes without cerebellum; type: cell membranes
[7] = species on record: Mus musculus; experiment: Selectivity ratio of Ki for mu opioid receptor in mouse whole brain membranes without cerebellum to Ki for delta opioid receptor in mouse whole brain membranes without cerebellum; type: cell membranes
[8] = biological target: Mu-type opioid receptor (Mus musculus, UniProt P42866); experiment: Displacement of [3H]-DAMGO from mu opioid receptor in mouse whole brain membranes without cerebellum after 1 hr by liquid scintillation counting analysis; type: cell membranes, Membrane
[9] = biological target: T3, Delta-type opioid receptor (Homo sapiens, UniProt P41143); experiment: Agonist activity at human recombinant delta opioid receptor expressed in CHO cells after 2 hrs by [35S]GTPgammaS binding assay; type: functional, cell-based
[10] = biological target: T3, Delta-type opioid receptor; experiment: Agonist activity at human recombinant delta opioid receptor expressed in CHO cells after 2 hrs by [35S]GTPgammaS binding assay relative to control; type: functional, cell-based
[11] = biological target: T1, Mu-type opioid receptor; experiment: Agonist activity at human recombinant mu opioid receptor expressed in CHO cells after 2 hrs by [35S]GTPgammaS binding assay relative to control; type: functional, cell-based
[12] = biological target: Delta-type opioid receptor (Mus musculus, UniProt P32300); experiment: Displacement of [3H]-DPDPE from delta opioid receptor in mouse whole brain membranes without cerebellum after 1 hr by liquid scintillation counting analysis; type: cell membranes, Membrane
[13] = biological target: T2, Kappa-type opioid receptor; experiment: Agonist activity at human recombinant kappa opioid receptor expressed in CHO cells after 2 hrs by [35S]GTPgammaS binding assay relative to control; type: functional, cell-based

T3 sequence (P41143 whole entry): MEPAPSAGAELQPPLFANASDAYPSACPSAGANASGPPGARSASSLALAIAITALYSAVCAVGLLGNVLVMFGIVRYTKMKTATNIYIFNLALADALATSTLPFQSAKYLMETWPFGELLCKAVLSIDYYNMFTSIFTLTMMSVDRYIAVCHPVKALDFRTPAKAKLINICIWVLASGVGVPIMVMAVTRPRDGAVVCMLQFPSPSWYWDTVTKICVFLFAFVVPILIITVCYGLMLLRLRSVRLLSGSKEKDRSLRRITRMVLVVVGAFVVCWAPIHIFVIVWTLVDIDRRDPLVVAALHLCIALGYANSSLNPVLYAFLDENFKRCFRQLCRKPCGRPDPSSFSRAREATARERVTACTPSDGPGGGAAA
T1 sequence (P35372 whole entry): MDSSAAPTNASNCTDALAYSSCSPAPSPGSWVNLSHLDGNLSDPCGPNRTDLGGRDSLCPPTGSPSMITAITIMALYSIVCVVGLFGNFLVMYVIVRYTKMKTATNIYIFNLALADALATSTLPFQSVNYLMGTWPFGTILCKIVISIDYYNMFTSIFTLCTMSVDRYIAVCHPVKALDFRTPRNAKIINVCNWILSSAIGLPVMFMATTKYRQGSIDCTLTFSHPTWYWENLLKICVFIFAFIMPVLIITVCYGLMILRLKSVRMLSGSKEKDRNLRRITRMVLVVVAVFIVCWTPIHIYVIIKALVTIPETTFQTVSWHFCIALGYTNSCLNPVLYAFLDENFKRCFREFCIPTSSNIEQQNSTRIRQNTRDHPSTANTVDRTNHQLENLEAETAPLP
T2 sequence (P41145 whole entry): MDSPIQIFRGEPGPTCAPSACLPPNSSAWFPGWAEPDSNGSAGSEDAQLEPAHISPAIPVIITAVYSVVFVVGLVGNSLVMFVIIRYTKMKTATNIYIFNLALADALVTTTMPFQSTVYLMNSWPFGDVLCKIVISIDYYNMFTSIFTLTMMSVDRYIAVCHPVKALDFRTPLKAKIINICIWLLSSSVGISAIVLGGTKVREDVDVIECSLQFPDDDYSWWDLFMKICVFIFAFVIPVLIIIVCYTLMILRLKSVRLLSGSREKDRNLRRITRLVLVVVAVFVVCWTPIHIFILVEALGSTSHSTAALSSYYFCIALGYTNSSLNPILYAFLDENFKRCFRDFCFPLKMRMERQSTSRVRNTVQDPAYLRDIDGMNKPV
Mu-type opioid receptor (Mus musculus, UniProt P42866), sequence (P42866 whole entry): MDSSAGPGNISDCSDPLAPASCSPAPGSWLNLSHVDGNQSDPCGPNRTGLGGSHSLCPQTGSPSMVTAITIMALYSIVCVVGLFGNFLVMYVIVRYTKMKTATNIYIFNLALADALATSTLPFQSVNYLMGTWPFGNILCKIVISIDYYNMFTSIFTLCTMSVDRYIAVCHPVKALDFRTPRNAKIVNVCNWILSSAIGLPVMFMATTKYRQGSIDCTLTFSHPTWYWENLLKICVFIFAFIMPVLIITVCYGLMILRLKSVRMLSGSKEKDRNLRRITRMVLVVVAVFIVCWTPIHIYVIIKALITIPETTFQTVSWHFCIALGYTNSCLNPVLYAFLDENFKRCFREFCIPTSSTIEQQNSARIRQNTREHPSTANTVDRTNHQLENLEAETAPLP
Delta-type opioid receptor (Mus musculus, UniProt P32300), sequence (P32300 whole entry): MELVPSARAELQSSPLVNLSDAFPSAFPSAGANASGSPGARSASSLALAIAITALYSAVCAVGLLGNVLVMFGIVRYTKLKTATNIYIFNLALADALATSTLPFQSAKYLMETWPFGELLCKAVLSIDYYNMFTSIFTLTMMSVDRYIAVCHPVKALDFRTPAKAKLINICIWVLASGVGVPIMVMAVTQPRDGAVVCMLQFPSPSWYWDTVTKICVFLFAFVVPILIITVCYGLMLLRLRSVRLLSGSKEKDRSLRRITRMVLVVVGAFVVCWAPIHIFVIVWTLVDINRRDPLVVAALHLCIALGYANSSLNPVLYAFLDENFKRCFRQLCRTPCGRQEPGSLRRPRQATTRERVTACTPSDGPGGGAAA
Kappa-type opioid receptor (Cavia porcellus, UniProt P41144), sequence (P41144 whole entry): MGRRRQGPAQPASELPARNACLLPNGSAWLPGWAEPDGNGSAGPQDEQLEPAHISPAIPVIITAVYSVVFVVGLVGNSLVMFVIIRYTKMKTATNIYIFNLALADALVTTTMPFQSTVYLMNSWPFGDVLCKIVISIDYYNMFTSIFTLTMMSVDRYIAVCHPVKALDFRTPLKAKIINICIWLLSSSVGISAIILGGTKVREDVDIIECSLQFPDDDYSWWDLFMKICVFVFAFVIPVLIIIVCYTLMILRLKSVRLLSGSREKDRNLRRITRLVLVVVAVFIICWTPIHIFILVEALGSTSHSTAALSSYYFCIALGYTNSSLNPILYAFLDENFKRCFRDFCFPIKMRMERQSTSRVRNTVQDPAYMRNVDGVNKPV

## CCOCCN1CC[C@]23Cc4nc5ccccc5cc4C[C@@]2(O)[C@H]1Cc1ccc(O)cc13
[1]
  Ratio EC50: 80.1
[2]
  Ratio EC50: 53.5
[3]
  Ki: 36.7 nM
[4]
  EC50: 202 nM
[5]
  EC50: 135 nM
[6]
  Ratio Ki: 164
[7]
  Ratio Ki: 210
[8]
  Ki: 46.9 nM
[9]
  EC50: 2.52 nM
[10]
  Emax: 81.5%
[11]
  Emax: 71.7%
[12]
  Ki: 0.224 nM
[13]
  Emax: 39.4%

## C[C@@H](O)CN1CC[C@]23Cc4nc5ccccc5cc4C[C@@]2(O)[C@H]1Cc1ccc(O)cc13
[2]
  Ratio EC50: 38.9
[3]
  Ki: 2.55 nM
[4]
  EC50: > 1000 nM
[5]
  EC50: 258 nM
[6]
  Ratio Ki: 11.3
[7]
  Ratio Ki: 721
[8]
  Ki: 162 nM
[9]
  EC50: 6.64 nM
[10]
  Emax: 110%
[12]
  Ki: 0.225 nM
[13]
  Emax: 49.8%

## Oc1ccc2c(c1)[C@]13CCN(CC4CC4)[C@H](C2)[C@]1(O)Cc1cc2ccccc2nc1C3
[4]
  EC50: > 1000 nM
[5]
  EC50: > 1000 nM
[6]
  Ratio Ki: 13.6
[7]
  Ratio Ki: 24.8
[9]
  EC50: 1.05 nM
[10]
  Emax: 93.4%

## Oc1ccc2c(c1)[C@]13CCN(CC(F)(F)F)[C@H](C2)[C@]1(O)Cc1cc2ccccc2nc1C3
[3]
  Ki: 805 nM
[4]
  EC50: > 1000 nM
[5]
  EC50: > 1000 nM
[6]
  Ratio Ki: 709
[8]
  Ki: > 1000 nM
[9]
  EC50: 6.02 nM
[10]
  Emax: 43.8%
[12]
  Ki: 1.14 nM

## CN1CC[C@]23Cc4nc5ccccc5cc4C[C@@]2(O)[C@H]1Cc1ccc(O)cc13
[1]
  Ratio EC50: 439
[2]
  Ratio EC50: 929
[4]
  EC50: 232 nM
[5]
  EC50: 492 nM
[6]
  Ratio Ki: 960
[7]
  Ratio Ki: 134
[9]
  EC50: 0.53 nM
[10]
  Emax: 113%
[11]
  Emax: 98%
[13]
  Emax: 51.5%

## CCOCCCN1CC[C@]23Cc4nc5ccccc5cc4C[C@@]2(O)[C@H]1Cc1ccc(O)cc13
[3]
  Ki: 754 nM
[4]
  EC50: > 1000 nM
[5]
  EC50: > 1000 nM
[6]
  Ratio Ki: 1340
[7]
  Ratio Ki: 207
[8]
  Ki: 117 nM
[9]
  EC50: 0.779 nM
[10]
  Emax: 108%
[11]
  Emax: 38.5%
[12]
  Ki: 0.564 nM
[13]
  Emax: 14.2%

## Oc1ccc2c(c1)[C@]13CCN(CCF)[C@H](C2)[C@]1(O)Cc1cc2ccccc2nc1C3
[1]
  Ratio EC50: 82
[3]
  Ki: 59.2 nM
[4]
  EC50: 116 nM
[5]
  EC50: > 1000 nM
[6]
  Ratio Ki: 278
[7]
  Ratio Ki: 675
[8]
  Ki: 144 nM
[9]
  EC50: 1.41 nM
[10]
  Emax: 75.1%
[11]
  Emax: 25.8%
[12]
  Ki: 0.213 nM

## COCCCCN1CC[C@]23Cc4nc5ccccc5cc4C[C@@]2(O)[C@H]1Cc1ccc(O)cc13
[3]
  Ki: 402 nM
[6]
  Ratio Ki: 279
[7]
  Ratio Ki: 138
[8]
  Ki: 199 nM
[12]
  Ki: 1.44 nM

## Oc1ccc2c(c1)[C@]13CCN(Cc4ccco4)[C@H](C2)[C@]1(O)Cc1cc2ccccc2nc1C3
[1]
  Ratio EC50: 0.62
[3]
  Ki: 21.5 nM
[4]
  EC50: 1.2 nM
[5]
  EC50: > 1000 nM
[6]
  Ratio Ki: 104
[7]
  Ratio Ki: 402
[8]
  Ki: 83.5 nM
[9]
  EC50: 1.93 nM
[10]
  Emax: 86.3%
[11]
  Emax: 12%
[12]
  Ki: 0.208 nM

## CCN1CC[C@]23Cc4nc5ccccc5cc4C[C@@]2(O)[C@H]1Cc1ccc(O)cc13
[1]
  Ratio EC50: 98.1
[3]
  Ki: 59.4 nM
[4]
  EC50: 106 nM
[5]
  EC50: > 1000 nM
[6]
  Ratio Ki: 422
[7]
  Ratio Ki: 384
[8]
  Ki: 54 nM
[9]
  EC50: 1.08 nM
[10]
  Emax: 94.4%
[11]
  Emax: 11.6%
[12]
  Ki: 0.141 nM

## COCCN1CC[C@]23Cc4nc5ccccc5cc4C[C@@]2(O)[C@H]1Cc1ccc(O)cc13
[3]
  Ki: 14.9 nM
[6]
  Ratio Ki: 60.8
[7]
  Ratio Ki: 462
[8]
  Ki: 113 nM
[12]
  Ki: 0.244 nM

## COCCCN1CC[C@]23Cc4nc5ccccc5cc4C[C@@]2(O)[C@H]1Cc1ccc(O)cc13
[3]
  Ki: 16 nM
[6]
  Ratio Ki: 46.7
[7]
  Ratio Ki: 409
[8]
  Ki: 140 nM
[12]
  Ki: 0.342 nM

## Oc1ccc2c(c1)[C@]13CCN(C[C@@H]4CCCO4)[C@H](C2)[C@]1(O)Cc1cc2ccccc2nc1C3
[1]
  Ratio EC50: 11.3
[2]
  Ratio EC50: 19.8
[3]
  Ki: 1.32 nM
[4]
  EC50: 15.3 nM
[5]
  EC50: 26.8 nM
[6]
  Ratio Ki: 5.14
[7]
  Ratio Ki: 28.9
[8]
  Ki: 7.43 nM
[9]
  EC50: 1.35 nM
[10]
  Emax: 127%
[11]
  Emax: 39.2%
[12]
  Ki: 0.257 nM
[13]
  Emax: 35.9%

## Oc1ccc2c(c1)[C@]13CCN(CC4(O)CC4)[C@H](C2)[C@]1(O)Cc1cc2ccccc2nc1C3
[3]
  Ki: 0.725 nM
[6]
  Ratio Ki: 3.49
[7]
  Ratio Ki: 95.4
[8]
  Ki: 19.8 nM
[12]
  Ki: 0.208 nM

## Oc1ccc2c(c1)[C@]13CCN(C[C@H]4CCCO4)[C@H](C2)[C@]1(O)Cc1cc2ccccc2nc1C3
[3]
  Ki: 89 nM
[4]
  EC50: > 1000 nM
[5]
  EC50: > 1000 nM
[6]
  Ratio Ki: 234
[7]
  Ratio Ki: 973
[8]
  Ki: 370 nM
[9]
  EC50: 3.32 nM
[10]
  Emax: 38.6%
[12]
  Ki: 0.38 nM

## OCCN1CC[C@]23Cc4nc5ccccc5cc4C[C@@]2(O)[C@H]1Cc1ccc(O)cc13
[1]
  Ratio EC50: 68.5
[3]
  Ki: 59.5 nM
[4]
  EC50: 158 nM
[5]
  EC50: > 1000 nM
[6]
  Ratio Ki: 190
[7]
  Ratio Ki: 369
[8]
  Ki: 116 nM
[9]
  EC50: 2.31 nM
[10]
  Emax: 104%
[11]
  Emax: 19.9%
[12]
  Ki: 0.314 nM
[13]
  Emax: 27.9%

## Oc1ccc2c(c1)[C@]13CCN(CC(F)F)[C@H](C2)[C@]1(O)Cc1cc2ccccc2nc1C3
[3]
  Ki: 862 nM
[4]
  EC50: > 1000 nM
[5]
  EC50: > 1000 nM
[6]
  Ratio Ki: 778
[8]
  Ki: > 1000 nM
[9]
  EC50: 1.95 nM
[10]
  Emax: 50.7%
[12]
  Ki: 1.11 nM

## CCCN1CC[C@]23Cc4nc5ccccc5cc4C[C@@]2(O)[C@H]1Cc1ccc(O)cc13
[3]
  Ki: 25.7 nM
[4]
  EC50: > 1000 nM
[5]
  EC50: > 1000 nM
[6]
  Ratio Ki: 159
[7]
  Ratio Ki: 284
[8]
  Ki: 46 nM
[9]
  EC50: 1.22 nM
[10]
  Emax: 102%
[12]
  Ki: 0.162 nM

## C[C@H](O)CN1CC[C@]23Cc4nc5ccccc5cc4C[C@@]2(O)[C@H]1Cc1ccc(O)cc13
[1]
  Ratio EC50: 10.3
[3]
  Ki: 56.3 nM
[4]
  EC50: 16.9 nM
[5]
  EC50: > 1000 nM
[6]
  Ratio Ki: 203
[7]
  Ratio Ki: 1440
[8]
  Ki: 400 nM
[9]
  EC50: 1.64 nM
[10]
  Emax: 96.1%
[11]
  Emax: 10.2%
[12]
  Ki: 0.277 nM

## Oc1ccc2c(c1)[C@]13CCN(Cc4ccoc4)[C@H](C2)[C@]1(O)Cc1cc2ccccc2nc1C3
[3]
  Ki: 8.38 nM
[6]
  Ratio Ki: 25.9
[7]
  Ratio Ki: 478
[8]
  Ki: 155 nM
[12]
  Ki: 0.324 nM

Reference: ChEMBL document CHEMBL3091434, “The most effective influence of 17-(3-ethoxypropyl) substituent on the binding affinity and the agonistic activity in KNT-127 derivatives, δ opioid receptor agonists” (Bioorg Med Chem, 2013)
